Assay results taken from ChEMBL document CHEMBL1201862, “PubChem BioAssay data set” (2004).
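Five compound concentrations were applied to cells in 96-well plates for 48 hours; endpoints were derived by simple linear interpolation of the resulting dose-response curve. GI50 = concentration required for 50% inhibition of growth.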 Activity calls are given as the source filed them. Rule as the data show it: active = GI50 up to about 1.1 µM and inactive = higher.

Legend:
Assay in all cases: NCI anticancer screen, dose series, 48 h
CAKI-1 = test system: CAKI-1
COLO 205 = test system: COLO 205
DLD-1 = test system: DLD-1
HCC 2998 = test system: HCC 2998
HCT-15 = test system: HCT-15
HOP-62 = test system: HOP-62
HOP-92 = test system: HOP-92
IGROV-1 = test system: IGROV-1
Malme-3M = test system: Malme-3M
NCI-H226 = test system: NCI-H226
NCI-H522 = test system: NCI-H522
OVCAR-3 = test system: OVCAR-3
SF-268 = test system: SF-268
SK-OV-3 = test system: SK-OV-3
SN12C = test system: SN12C
UO-31 = test system: UO-31
XF498 = test system: XF498
MOLT-4 = test system: MOLT-4
BT-549 = test system: BT-549
DU-145 = test system: DU-145

Compound	GI50 (CAKI-1)	GI50 (COLO 205)	GI50 (DLD-1)	GI50 (HCC 2998)	GI50 (HCT-15) [µM]	GI50 (HOP-62)	GI50 (HOP-92)	GI50 (IGROV-1)	GI50 (Malme-3M)	GI50 (NCI-H226)	GI50 (NCI-H522)	GI50 (OVCAR-3)	GI50 (SF-268)	GI50 (SK-OV-3)	GI50 (SN12C)	GI50 (UO-31)	GI50 (XF498)	GI50 (MOLT-4)	GI50 (BT-549)	GI50 (DU-145)
O=C1Nc2ccccc2Nc2nc3cccccc-3c21	> 100 µM (inactive)	> 100 µM (inactive)	> 100 µM (inactive)	> 100 µM (inactive)	> 100	> 100 µM (inactive)	> 100 µM (inactive)	> 100 µM (inactive)	> 100 µM (inactive)	> 100 µM (inactive)	> 100 µM (inactive)	> 100 µM (inactive)	> 100 µM (inactive)	> 100 µM (inactive)	> 100 µM (inactive)	> 100 µM (inactive)	> 100 µM (inactive)	–	–	–
COc1c(OC(C)=O)cc2c(OC(C)=O)c1CC(C)CC(OC)C(O)C(C)/C=C(\C)C(OC(N)=O)C(OC)/C=C\C=C(/C)C(=O)N2 (configuration not stated)	> 100 µM (inactive)	5.77 µM (inactive)	> 49.8 µM (inactive)	36.5 µM (inactive)	> 64.7	> 100 µM (inactive)	96.8 µM (inactive)	> 100 µM (inactive)	98.9 µM (inactive)	> 100 µM (inactive)	10.7 µM (inactive)	98.4 µM (inactive)	> 100 µM (inactive)	> 100 µM (inactive)	69.5 µM (inactive)	> 83.6 µM (inactive)	> 90.4 µM (inactive)	> 27 µM (inactive)	–	–
COc1ccc(OC)c(-c2cc(O)c3cc4c(cc3n2)OCO4)c1	4.12 µM (inactive)	2.65 µM (inactive)	3.57 µM (inactive)	4.67 µM (inactive)	4.22	13.9 µM (inactive)	3.54 µM (inactive)	10.5 µM (inactive)	3.49 µM (inactive)	7.38 µM (inactive)	2.85 µM (inactive)	3.93 µM (inactive)	7.74 µM (inactive)	3.49 µM (inactive)	6.79 µM (inactive)	19.8 µM (inactive)	4.42 µM (inactive)	6.34 µM (inactive)	–	–
CCOC(=O)/C(C#N)=C/c1[nH]c(C)c(C)c1C	> 100 µM (inactive)	> 100 µM (inactive)	> 100 µM (inactive)	> 100 µM (inactive)	> 100	> 100 µM (inactive)	> 100 µM (inactive)	> 100 µM (inactive)	> 100 µM (inactive)	> 100 µM (inactive)	> 100 µM (inactive)	> 100 µM (inactive)	> 100 µM (inactive)	> 100 µM (inactive)	> 100 µM (inactive)	> 100 µM (inactive)	> 100 µM (inactive)	> 100 µM (inactive)	–	–
CC1=C(C(=O)Nc2ccc([N+](=O)[O-])cc2)C(c2ccccc2O)C(C(=O)Nc2ccc([N+](=O)[O-])cc2)=C(C)N1	21.4 µM (inactive)	17.5 µM (inactive)	18.5 µM (inactive)	13.5 µM (inactive)	–	14.1 µM (inactive)	11.7 µM (inactive)	25.9 µM (inactive)	21.8 µM (inactive)	16.6 µM (inactive)	15 µM (inactive)	20.5 µM (inactive)	19.1 µM (inactive)	21.1 µM (inactive)	19.6 µM (inactive)	15.2 µM (inactive)	13.6 µM (inactive)	15.2 µM (inactive)	–	–
COc1cc([C@@H]2c3cc4c(cc3[C@@H](NCc3ccc(C#N)cc3)C3COC(=O)[C@@H]32)OCO4)cc(OC)c1O (some centres not stated)	1.26 µM (inactive)	0.948 µM (active)	1.33 µM (inactive)	1.57 µM (inactive)	1.16	0.31 µM (active)	1.88 µM (inactive)	1.15 µM (inactive)	1.01 µM (active)	0.283 µM (active)	1.09 µM (active)	2.16 µM (inactive)	1.25 µM (inactive)	0.989 µM (active)	0.414 µM (active)	1.61 µM (inactive)	0.278 µM (active)	0.0512 µM (active)	–	–
NC(=O)C(=O)CC(=O)c1ccccc1NC1=CC(=O)C(=O)c2ccccc21	> 100 µM (inactive)	> 100 µM (inactive)	42.3 µM (inactive)	> 100 µM (inactive)	> 53.5	> 100 µM (inactive)	23.9 µM (inactive)	> 92.3 µM (inactive)	31.7 µM (inactive)	> 73.3 µM (inactive)	30.2 µM (inactive)	26.7 µM (inactive)	> 40.8 µM (inactive)	> 100 µM (inactive)	51.6 µM (inactive)	> 68.5 µM (inactive)	> 100 µM (inactive)	> 55 µM (inactive)	–	–
NNC(=O)N/N=C1\CN(c2ccc(Cl)cc2Cl)C(=O)C(=O)C1c1nc2ccccc2o1 (configuration not stated)	> 100 µM (inactive)	> 100 µM (inactive)	> 100 µM (inactive)	> 100 µM (inactive)	–	> 100 µM (inactive)	> 100 µM (inactive)	> 100 µM (inactive)	> 100 µM (inactive)	> 100 µM (inactive)	> 100 µM (inactive)	> 100 µM (inactive)	> 100 µM (inactive)	> 100 µM (inactive)	> 100 µM (inactive)	92.5 µM (inactive)	> 100 µM (inactive)	> 100 µM (inactive)	–	–
COc1ccc(OC)c(NC(=O)CCC/C(CC(=O)c2ccc(O)c(OC)c2)=N\Nc2nnc(C)n2N)c1	> 100 µM (inactive)	> 100 µM (inactive)	> 100 µM (inactive)	> 100 µM (inactive)	> 100	> 100 µM (inactive)	> 100 µM (inactive)	> 100 µM (inactive)	> 100 µM (inactive)	> 100 µM (inactive)	> 100 µM (inactive)	> 100 µM (inactive)	> 100 µM (inactive)	> 100 µM (inactive)	> 100 µM (inactive)	> 100 µM (inactive)	> 100 µM (inactive)	> 100 µM (inactive)	–	–
CCOCc1cc(=O)c2cc3c(cc2o1)OC(C)(C)CC3	> 100 µM (inactive)	> 100 µM (inactive)	> 100 µM (inactive)	> 100 µM (inactive)	> 100	> 100 µM (inactive)	45.7 µM (inactive)	> 100 µM (inactive)	> 100 µM (inactive)	> 100 µM (inactive)	> 100 µM (inactive)	> 100 µM (inactive)	> 100 µM (inactive)	> 100 µM (inactive)	> 100 µM (inactive)	92.9 µM (inactive)	> 100 µM (inactive)	55.5 µM (inactive)	–	–
O=C(CCl)Nc1ccc(C(=O)N/N=C/c2ccc(Cl)cc2)cc1	2.82 µM (inactive)	0.731 µM (active)	2.18 µM (inactive)	9.33 µM (inactive)	4.63	3.52 µM (inactive)	2 µM (inactive)	0.728 µM (active)	2.01 µM (inactive)	18.6 µM (inactive)	1.75 µM (inactive)	1.84 µM (inactive)	2.07 µM (inactive)	3.03 µM (inactive)	2.84 µM (inactive)	4.46 µM (inactive)	1.19 µM (inactive)	1.9 µM (inactive)	1.88 µM (inactive)	3.02 µM (inactive)
Oc1cc(-c2cccs2)nc2cc3c(cc12)OCO3	–	9.06 µM (inactive)	5.13 µM (inactive)	7.13 µM (inactive)	4.23	3.96 µM (inactive)	> 100 µM (inactive)	3.37 µM (inactive)	3.08 µM (inactive)	4.32 µM (inactive)	2.05 µM (inactive)	4.63 µM (inactive)	6.43 µM (inactive)	2.7 µM (inactive)	6.76 µM (inactive)	4.69 µM (inactive)	3.54 µM (inactive)	4.52 µM (inactive)	–	–
CCSc1nc2sc(C)c(C)c2c(=O)n1-c1ccc(C(=O)O)cc1	> 100 µM (inactive)	> 100 µM (inactive)	43.2 µM (inactive)	85.1 µM (inactive)	39.9	88.5 µM (inactive)	> 100 µM (inactive)	90.8 µM (inactive)	> 100 µM (inactive)	19.8 µM (inactive)	23.2 µM (inactive)	24.8 µM (inactive)	27.2 µM (inactive)	> 100 µM (inactive)	55.1 µM (inactive)	25.1 µM (inactive)	75.7 µM (inactive)	48.5 µM (inactive)	–	–
